Results taken from US9066880B2, “Use of dihydrodehydrodiisoeugenol and preparations comprising dihydrodehydrodiisoeugenol” (SYMRISE AG, priority 2010, dated 2015).

Tests used:
[1] = system: 3T3-L1-cells (mouse embryonic fibroblast-like preadipocytes cell line); assay: Quantification of intracellular lipids (stimulation of adipogenesis), Nile Red; assay type: cell-based; parameters: Stimulation of adipogenesis: unit not given here; details: for Stimulation of adipogenesis: applied day −2 to day 2, Nile Red at day 10, vs hormone mix only
Method: 3T3-L1-cells (mouse embryonic fibroblast-like preadipocytes cell line) were propagated in Dulbecco's Modified Eagle Medium (DMEM), enriched with 10% newborn calf serum (CS) at 37° C. and 5% CO2 and seeded in 48-well plates for lipid quantification. After reaching confluence at day −2 the differentiation was induced by changing medium at day 0 to DMEM with 10% fetal calf serum (FCS) containing a hormone mix (HM) of 1 μg/ml insulin, 0.25 μM dexamethasone (Dex) and 0.5 mM 3-isobutyl-1-methylxanthine (IBMX).
Compounds of interest such as compound of formula (I) are applied from day −2 (confluence of the cells) until day 2 using various concentrations. Medium is renewed every other day. At day 2, medium consisting of DMEM, 10% FCS and 1 μg/ml insulin is added. From day 4 on, only DMEM containing 10% FCS is used for further cultivation of cells. At day 10, quantification of the intracellular lipid droplets is performed by addition of the fluorescent dye Nile Red (9-diethylamino-5H-benzo[alpha]phenoxazine-5-one) for 20 minutes at 37° C. and 5% CO2. Fluorescence (RFU) is detected with excitation at 485 nm and emission at 535 nm.
Stimulation of the adipogenesis in the presence of the compounds of interest is calculated according to the following equation:
[formula] wherein • RFU test substance=Relative Fluorescence Units of the wells with test substance and with cells • RFU control=Relative Fluorescence Units of the wells stimulated with hormone mix only. • RFU without cells=Relative Fluorescence Units of the wells containing Nile Red only, without cells.

[2] = system: 3T3-L1-cells (mouse embryonic fibroblast-like preadipocytes cell line); assay: Lipolysis assay (in vitro), free glycerol in supernatant; assay type: cell-based; details: for Relative lipolysis compared to basal lipolysis: added at day 10 for 20 hours, basal lipolysis = 100%
Method: 3T3-L1-cells (mouse embryonic fibroblast-like preadipocytes cell line) were propagated in Dulbecco's Modified Eagle Medium (DMEM), enriched with 10% newborn calf serum (CS) at 37° C. and 5% CO2 and seeded in 48-well plates for lipolysis. After reaching confluence at day −2 the differentiation was induced by changing medium at day 0 to DMEM with 10% fetal calf serum (FCS) containing a hormone mix (HM) of 1 μg/ml insulin, 0.25 μM dexamethasone (Dex) and 0.5 mM 3-isobutyl-1-methylxanthine (IBMX). Medium is renewed every other day. At day 2, medium consisting of DMEM, 10% FCS and 1 μg/ml insulin is added. From day 4 on, only DMEM containing 10% FCS is used for further cultivation of cells. For determination of lipolysis, compounds of interest are added at day 10 for 20 hours mixed with bovine serum albumin (BSA). If lipolysis occurs, cells secrete glycerol into the supernatant. Therefore, supernatants are harvested and determination of lipolysis is performed by using a free glycerol reagent. The quantification of the free glycerol is carried out on the basis of an enzymatic method with a free glycerol reagent.
The lipolysis in the presence of the test substances is calculated according to the following equation:
[formula] wherein • A test substance=absorption of the wells with test substance and with cells • A control=absorption of the wells without test substance, but with cells • A control without cells=absorption of the wells without test substance and without cells

C[C@H]1CC[C@@]2(OC1)O[C@H]1C[C@H]3[C@@H]4CC[C@@H]5C[C@@H](O)CC[C@]5(C)[C@H]4CC[C@]3(C)[C@H]1[C@@H]2C [sarsasapogenin, reference compound]
Stimulation of adipogenesis ([1]; 10 μM): 27
Stimulation of adipogenesis ([1]; 20 μM): 17
Effect on adipogenesis (in words) ([1]; experiments have shown): stimulating the adipogenesis
Relative lipolysis compared to basal lipolysis ([2]; 10 μM): 99% ± 3.3
Relative lipolysis compared to basal lipolysis ([2]; 20 μM): 106% ± 3.5
Effect on lipolysis in differentiated adipocytes (in words) ([2]; experiments have shown): no effect on the lipolysis
